Laboratory results reported in PubChem BioAssay AID463206 (Broad Institute, 2010).
Active and inactive are the calls of the source.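 How the source made its calls: active means caspase luminescence falls with dose and the half-maximal concentration AC50 from the fitted curve is at or below a set limit; inconclusive means flat fit at 30 to 70% signal loss, or invalid fit; inactive means AC50 above the limit, or signal rises instead.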

test system: INS-1E cytokine-induced caspase-3/7, Caspase-Glo luminescence, 48 h; assay: suppression of cytokine-driven beta-cell apoptosis – INS-1E rat cells, luminescence, orthogonal assay for beta-cell apoptosis protection project, dose response (AID 463206)

Compound	AC50
C[C@H]1CCC/C=C/C2C[C@H](O)CC2[C@H](O)/C=C/C(=O)O1 (stereo partly drawn)	> 26 µM (inactive)
CC[C@H](C)[C@@H](C(=O)NCCCCCCCCCCC(=O)N1CCN(C(=O)OC(C)(C)C)CC1)n1cc(CCCCCNC(=O)OC(C)(C)C)nn1	> 26 µM (inactive)
O=S(=O)(c1ccc(Cl)cc1)N1CCN(Cc2ccc(O)c3ncccc23)CC1	> 26 µM (inactive)
CC(C)n1cnc2c(NCc3ccccc3)cc(N[C@H](C)CO)cc21	> 26 µM (inactive)
Cc1cc(N/N=C/c2ccccc2[N+](=O)[O-])nc(-n2nc(C)cc2C)n1	> 26 µM (inactive)
Cc1ccc2[nH]c3c(N4CCc5ccccc5C4)ncnc3c2c1	> 26 µM (inactive)
Cc1ccc(N=Cc2c(C)[nH]n(-c3nc4ccccc4[nH]3)c2=O)cc1	> 26 µM (inactive)
CN(C)c1cc[n+](CC(=O)c2ccc(-c3ccccc3)cc2)cc1	> 26 µM (inactive)
O=C(N/N=C/c1cc(Cl)ccc1O)c1ccc(Br)cc1	> 26 µM (inactive)
O=[N+]([O-])c1cccc(-c2cn3nc(-c4ccccc4)c(-c4ccccc4)nc3n2)c1	> 26 µM (inactive)
COC(=O)c1ccccc1NC1=C/C(=N\S(=O)(=O)c2ccc(C(=O)O)cc2)c2ccccc2C1=O	> 26 µM (inactive)
CCC[N+]1(CC#CCC(c2ccccc2)c2ccccc2)CCCCC1	> 26 µM (inactive)
CN1/C(=C\P(=O)(N(C)C)N(C)C)C(C)(C)c2ccccc21	> 26 µM (inactive)
CC(C)C[C@H]1CN=C(Nc2ccccc2)N1CCc1ccc(F)cc1	> 12 µM (inactive)
N#CCC(=O)N/N=C/c1cc(-c2ccccc2)n(-c2ccc(Cl)cc2)c1-c1ccccc1	> 26 µM (inactive)
CCN1/C(=C/C=C/c2oc3ccc(-c4ccccc4)cc3[n+]2CC)Oc2ccc(-c3ccccc3)cc21	> 26 µM (inactive)
O=C1/C(=N\S(=O)(=O)c2cccs2)C([n+]2cccc(Cc3ccccc3)c2)=C([O-])c2ccccc21	> 26 µM (inactive)
CC1=NN(c2nc3ccccc3[nH]2)C(=O)/C1=C/N(C)C	> 26 µM (inactive)
O=c1nccc(N/N=C/c2ccccc2O)[nH]1	> 26 µM (inactive)
O=C1N/C(=N\N=C\c2cccnc2)SC1Cc1ccc(SC(F)F)cc1 (stereo not drawn)	> 26 µM (inactive)
Cc1cc(Nc2cccc(Cl)c2)nc(NCc2ccccc2)n1	> 26 µM (inactive)
Fc1ccc(Oc2nc(-c3ccccn3)nc3ccccc23)cc1	> 26 µM (inactive)
N#C/C(N=Nc1ccccc1O)=N\Nc1ccccc1O	> 26 µM (inactive)
CCN(CC)c1ccc(/C=N/NC(=O)c2ccoc2C)c(O)c1	> 26 µM (inactive)

Compound	AC50
O=S(=O)(c1ccc2nc(Nc3ccccc3)ccc2c1)N1CCCCC1	> 26 µM (inactive)
N#CC1=C(N)N2C(=C(C#N)C1c1ccc(Br)cc1)Nc1ccccc12 (stereo not drawn)	> 26 µM (inactive)
CN(C)S(=O)(=O)c1cccc(N=C2NN=C(c3ccccc3)CS2)c1	> 26 µM (inactive)
COc1ccc(C(NC(C)=O)c2cc(Cl)c3cccnc3c2O)cc1OC (stereo not drawn)	> 26 µM (inactive)
COc1ccc(NC(=O)N(C)C[C@H]2Oc3c(NS(=O)(=O)c4ccc(F)cc4)cccc3C(=O)N([C@H](C)CO)C[C@@H]2C)cc1	> 26 µM (inactive)
CCc1ccc(S(=O)(=O)Nc2ccc(O)c3ccccc23)cc1	> 26 µM (inactive)
CC1(C)CCN2CCC(C)(C)c3c(O)ccc1c32	> 26 µM (inactive)
C=C1CCc2c([nH]c3ccc(OCC(C)C)cc23)C1=O	> 26 µM (inactive)
Cc1cc(N/N=C/c2ccc(F)cc2)nc(-n2nc(C)cc2C)n1	> 26 µM (inactive)
c1csc(-c2csc3ncnc(NCCCN4CCOCC4)c23)c1	> 26 µM (inactive)
Cc1nc2c(=O)n(C)c(=O)nc-2n(C)n1	> 26 µM (inactive)
C(/CCc1ccccc1)=N\Nc1nc2ccccc2[nH]1	> 26 µM (inactive)
O=C1CSC(c2cccnc2)N1CC1CC1 (stereo not drawn)	> 26 µM (inactive)
CNC(=O)c1cc(Oc2ccc(NC(=O)Nc3ccc(Cl)c(C(F)(F)F)c3)cc2)ccn1	> 26 µM (inactive)
Cc1ccc(NC(=O)/C=C/c2ccc([N+](=O)[O-])s2)c(C)c1	1.17 µM
O=C(c1cc(-c2ccccc2Cl)nc2ccccc12)N1CCN(c2ccccn2)CC1	3.83 µM
CC(=O)N1CCN(c2ccc(Oc3ccc([N+](=O)[O-])c(C(F)(F)F)c3)cc2)CC1	> 26 µM (inactive)
Oc1ccc(Br)cc1-c1cc(-c2ccc(Cl)cc2)n[nH]1	> 26 µM (inactive)
Cc1ccccc1NC1=C/C(=N\S(=O)(=O)c2cccs2)c2ccccc2C1=O	> 26 µM (inactive)
CCOC(=O)C(NCCc1ccc(F)cc1)(NC(=O)CC)C(F)(F)F (stereo not drawn)	> 26 µM (inactive)
Cn1nc([N+](=O)[O-])nc1Sc1cccc2cccnc12	> 26 µM (inactive)
O=S(=O)(c1ccc2c(c1)OCCO2)N1CCN(c2ncnc3sccc23)CC1	> 26 µM (inactive)
C/C(=N\NC(=O)c1cc(C2CC2)nc2ccccc12)c1ccc(O)cc1O	> 26 µM (inactive)
CCCC(C)C(=O)Nc1nc(C)c(-c2csc(Nc3ccc(Cl)cc3)n2)s1 (stereo not drawn)	> 26 µM (inactive)

Compound	AC50
O=C(Cc1ccc(Cl)cc1)c1c[nH]c(C(=O)NCc2cccnc2)c1	> 26 µM (inactive)
CCCCCc1cc(=O)oc2c(C(CCN(CC)CC)c3ccc(OC)cc3)c(OC)cc(OC)c12 (stereo not drawn)	23.2 µM
O=C(Oc1c(Cl)cc(Cl)c2cccnc12)c1cccs1	> 12 µM (inactive)
Cc1c(C(=O)Nc2nc(-c3ccccn3)cs2)oc2ccccc12	> 26 µM (inactive)
C=CCn1nc([N+](=O)[O-])nc1Sc1cccc2cccnc12	> 26 µM (inactive)
Cc1c(C(C)C)c(=O)n(-c2ccc(S(=O)(=O)NCc3ccccc3)cc2)n1C	> 26 µM (inactive)
COc1cccc(/C=N/Nc2ccnc(=O)[nH]2)c1O	> 26 µM (inactive)
O=C(NC(NC(=S)Nc1ccc(Cl)cc1Cl)C(Cl)(Cl)Cl)c1cccc([N+](=O)[O-])c1 (stereo not drawn)	> 26 µM (inactive)
Cc1occc1C(=O)N1CCCC(N2CCN(c3cccc(C(F)(F)F)c3)CC2)C1 (stereo not drawn)	> 26 µM (inactive)
CCCCNC(=O)c1ccc(Cn2c(=S)[nH]c3c([nH]c4ccc(OC)cc43)c2=O)cc1	> 26 µM (inactive)
CC(=O)NC(c1cc(Cl)c2cccnc2c1O)C1CC1 (stereo not drawn)	> 26 µM (inactive)
O=C(/C(=C/c1ccc(Cl)cc1)c1nc2ccccc2[nH]1)c1cccs1	> 26 µM (inactive)
CCN(CC)c1ccc(/C=N/NC(=O)c2cccc(S(=O)(=O)N3CCOCC3)c2)c(O)c1	> 26 µM (inactive)
COc1ccc(CC(=O)Nc2cccc(S(=O)(=O)N3CCCCCC3)c2)cc1OC	> 26 µM (inactive)
CCCCS(=O)(=O)/C=C\C=C/S(=O)(=O)CCCC	> 26 µM (inactive)
CCOc1cc(/C=N/Nc2cc(C)nc(-n3nc(C)cc3C)n2)ccc1O	> 26 µM (inactive)
COc1cc(SC#N)ccc1N=Cc1c(C)[nH]n(-c2ccc(C)c(C)c2)c1=O	> 26 µM (inactive)
Cc1cccc(/C=C/C(=O)c2ccc([N+](=O)[O-])o2)c1	> 26 µM (inactive)
C=CC[C@@H](CC(=O)N(CCO)Cc1ccccc1)C(=O)N[C@H](COC(=O)[C@@H](CC=C)CC(=O)OC(C)(C)C)c1ccccc1	> 26 µM (inactive)
Oc1cccc2ccc(Nc3ccccn3)nc12	> 26 µM (inactive)
C=C1[C@@H](O)[C@@H]2O[C@]3(CC[C@H](/C=C/[C@@H](C)[C@@H]4CC(C)=CC5(O[C@H](C[C@@](C)(O)C(=O)OC)CC[C@H]5O)O4)O3)CC[C@H]2O[C@@H]1[C@@H](O)C[C@H](C)[C@H]1OC2(CCCCO2)CC[C@H]1C (stereo partly drawn)	> 26 µM (inactive)
O=C(NCc1ccncc1)c1cc(-c2ccc(Cl)cc2)oc1C(F)(F)F	> 12 µM (inactive)
Cc1cc(N/N=C/c2cccc(Cl)c2)nc(-n2nc(C)cc2C)n1	> 26 µM (inactive)
CCCCCCCCCCn1c2c(c(=N)c3c1CCC3)CCC2	> 26 µM (inactive)

Compound	AC50
Cc1cc(C(=O)CSc2nc3ccccc3c(=O)n2C)c(C)n1Cc1ccc2c(c1)OCO2	> 26 µM (inactive)
O=C(CSC1=NCCS1)Nc1ccnc2ccccc12	> 26 µM (inactive)
O=C(Nc1ccc(Cl)c(Cl)c1)N1CCSC1c1ccco1 (stereo not drawn)	> 26 µM (inactive)
COc1ccccc1NC(=O)CN(c1ccc(C23CC4CC(CC(C4)C2)C3)cc1)S(C)(=O)=O	> 26 µM (inactive)
O=C(c1ccc2c(c1)[nH]c(=S)n1c3ccccc3nc21)N1CCN(c2cccc(Cl)c2)CC1	> 26 µM (inactive)
COc1cccc(C(NC(C)=O)c2ccc3cccnc3c2O)c1 (stereo not drawn)	> 26 µM (inactive)
Clc1cc2cccnc2c2ncccc12	> 26 µM (inactive)
Cc1ccccc1CS(=O)(=O)c1nnc([C@H](Cc2ccccc2)NC(=O)OC(C)(C)C)o1	> 26 µM (inactive)
C=C[C@H](Cc1ccccc1)N(Cc1ccccc1)S(=O)(=O)N(Cc1ccccc1)[C@H](C=C)Cc1ccccc1	> 26 µM (inactive)
O=C(N/N=C(\Cc1ncc[nH]1)c1ccccc1)c1ccncc1	> 26 µM (inactive)
c1ccc2c(c1)OCC(CNc1ncnc3sccc13)O2 (stereo not drawn)	> 26 µM (inactive)
C=C(C(=O)c1ccccc1)C(C)C(=C)C(=O)c1ccccc1	> 26 µM (inactive)
O=C(CCC(=O)Nc1ccc(Br)cc1)N/N=C/c1ccccc1O	> 26 µM (inactive)
COc1ccc(C(=O)Nc2ccccc2C(=O)N/N=C/c2ccccn2)cc1OC	> 26 µM (inactive)
Cc1[nH]c2ccccc2c1CN1CCC(Cc2ccccc2)CC1	> 26 µM (inactive)
Cc1ccc(O)c(CNc2cccc3cccnc23)c1	> 12 µM (inactive)
C[n+]1c2n(c3ccccc31)N=C(c1cc(C(C)(C)C)c(O)c(C(C)(C)C)c1)CS2	> 26 µM (inactive)
CN(C1=C(NC(=O)c2ccccc2)C(=O)c2ccccc2C1=O)C1CCS(=O)(=O)C1 (stereo not drawn)	> 26 µM (inactive)
Cc1cc(OCC(=O)N(C)Cc2ccccc2)ccc1Cl	> 26 µM (inactive)
Cc1cc(C(=O)N/N=C/c2cc(Br)ccc2OC(=O)c2ccccc2)n[nH]1	> 26 µM (inactive)
C/C(=N\NC(=O)c1cc(-c2cccnc2)nc2ccccc12)c1ccccc1O	> 26 µM (inactive)
